Measurements: patent US20220177538A1, “CO-AGONISTS AT GLP-1 AND GIP RECEPTORS SUITABLE FOR ORAL DELIVERY” (Novo Nordisk A/S, priority 2020, published 2022)
Like-named read-outs stand apart in the source and are kept apart here. Starred links: 1 amine or outer side, 2 acyl side, 3 side chain; linkers in the order of their positions; H or OH if unused. Non-standard residues stand in square brackets, D forms with d. Residues, ends and D or L forms follow the SMILES beside them. Groups on a side chain read outwards from the residue. *: point of attachment. C20 diacid = O=C(O)CCCCCCCCCCCCCCCCCCC(=O)*; C18 diacid = O=C(O)CCCCCCCCCCCCCCCCC(=O)*; C16 diacid = O=C(O)CCCCCCCCCCCCCCC(=O)*; γGlu = O=C(O)[C@H](CCC(=O)[*:2])N[*:1]; εLys = N[C@@H](CCCCN[*:1])C(=O)[*:2]; Aib = CC(C)(N)C(=O)O

Experiments:
human GIP receptor = target: T1, human GIP receptor (Homo sapiens, UniProt P48546); test: In vitro functional potency, CRE luciferase reporter, whole BHK cells (hGIPR); assay type: cell-based; settings: BHK CRE luc2P hGIPR cells
T1 construct: expressed in transfected cells; host or cells: BHK (parent line BHKTS13), clone BHK CRE luc2P hGIPR
T1 sequence (P48546 22-466): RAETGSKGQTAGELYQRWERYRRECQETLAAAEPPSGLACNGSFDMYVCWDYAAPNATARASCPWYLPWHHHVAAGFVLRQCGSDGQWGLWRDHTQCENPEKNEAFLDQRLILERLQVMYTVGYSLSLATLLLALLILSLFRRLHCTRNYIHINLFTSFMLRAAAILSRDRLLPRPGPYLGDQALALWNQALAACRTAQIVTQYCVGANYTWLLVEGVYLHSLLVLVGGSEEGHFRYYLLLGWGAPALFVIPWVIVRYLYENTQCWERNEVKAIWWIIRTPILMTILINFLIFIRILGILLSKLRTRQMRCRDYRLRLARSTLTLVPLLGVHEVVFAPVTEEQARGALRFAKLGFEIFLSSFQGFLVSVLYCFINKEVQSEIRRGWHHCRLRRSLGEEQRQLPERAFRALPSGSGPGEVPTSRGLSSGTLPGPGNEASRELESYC
Summary of the method: (§1)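 Potencies are replicate means (n≥2) from non-linear log(agonist) vs response fits of CRE-driven luminescence. Cells were overnight-plated BHK CRE luc2P lines transfected with human GIPR or GLP-1R, 5000/well.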

human GLP-1 receptor = human GLP-1 receptor (Homo sapiens, UniProt P43220); test: In vitro functional potency, CRE luciferase reporter, whole BHK cells (hGLP-1R); assay type: cell-based; set-up: expressed in transfected cells; host or cells: BHK (parent line BHKTS13), clone BHK CRE luc2P hGLP-1R; settings: BHK CRE luc2P hGLP-1R cells
Chain of human GLP-1 receptor (P43220 24-463): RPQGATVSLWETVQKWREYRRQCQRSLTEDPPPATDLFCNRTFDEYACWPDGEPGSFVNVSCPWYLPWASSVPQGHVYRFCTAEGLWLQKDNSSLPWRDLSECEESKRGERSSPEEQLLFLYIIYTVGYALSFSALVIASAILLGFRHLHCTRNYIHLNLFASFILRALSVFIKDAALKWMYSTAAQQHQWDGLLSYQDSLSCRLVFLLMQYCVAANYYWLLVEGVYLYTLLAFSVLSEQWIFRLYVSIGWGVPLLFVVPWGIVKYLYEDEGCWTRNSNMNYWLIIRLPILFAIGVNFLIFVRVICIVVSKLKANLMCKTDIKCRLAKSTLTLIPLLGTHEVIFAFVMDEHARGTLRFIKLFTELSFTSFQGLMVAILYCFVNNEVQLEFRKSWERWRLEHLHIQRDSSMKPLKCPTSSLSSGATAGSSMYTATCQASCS
Summary of the method: as §1

[1] = 0% HSA, read-out: hGIPR, CRE Luc 0% HSA EC50
[2] = hGIPR, CRE Luc 1% HSA EC50, 1% HSA
[3] = 0% HSA, read-out: hGLP-1R, CRE Luc 0% HSA EC50
[4] = hGLP-1R, CRE Luc 1% HSA EC50, 1% HSA

SMILES	EC50 (human GIP receptor; [1]) [nM]	EC50 (human GIP receptor; [2]) [nM]	EC50 (human GLP-1 receptor; [3]) [nM]	EC50 (human GLP-1 receptor; [4]) [nM]
CC(C)C[C@H](NC(=O)[C@H](CC(C)C)NC(=O)[C@H](Cc1c[nH]c2ccccc12)NC(=O)[C@H](CC(N)=O)NC(=O)[C@@H](NC(=O)[C@H](Cc1ccccc1)NC(=O)[C@H](CCC(=O)O)NC(=O)[C@H](CCC(N)=O)NC(=O)[C@H](C)NC(=O)[C@H](C)NC(=O)[C@H](CCC(N)=O)NC(=O)[C@H](CCCCNC(=O)[C@@H](N)CCCCNC(=O)[C@@H](N)CCCCNC(=O)CC[C@H](NC(=O)CCCCCCCCCCCCCCCCCCC(=O)O)C(=O)O)NC(=O)[C@H](CCC(=O)O)NC(=O)[C@H](CC(C)C)NC(=O)[C@H](Cc1ccc(O)cc1)NC(=O)[C@H](Cc1ccc(O)cc1)NC(=O)[C@H](CO)NC(=O)[C@H](Cc1ccc(O)cc1)NC(=O)[C@H](CC(=O)O)NC(=O)[C@H](CO)NC(=O)[C@@H](NC(=O)[C@H](Cc1ccccc1)NC(=O)[C@@H](NC(=O)CNC(=O)[C@H](CCC(=O)O)NC(=O)C(C)(C)NC(=O)[C@@H](N)Cc1ccc(O)cc1)[C@@H](C)O)[C@@H](C)O)C(C)C)C(=O)N[C@@H](C)C(=O)NCC(=O)NCC(=O)N1CCC[C@H]1C(=O)N[C@@H](CO)C(=O)N[C@@H](CO)C(=O)NCC(=O)N[C@@H](C)C(=O)N1CCC[C@H]1C(=O)N1CCC[C@H]1C(=O)N1CCC[C@H]1C(=O)N[C@@H](CO)C(N)=O [Compound 2] (H-Y[Aib]EGTFTSDYSYYLEK([εLys-εLys-γGlu-C20 diacid])QAAQEFVNWLLAGGPSSGAPPPS-NH2)	0.0038	0.275	0.006	0.9
CC[C@H](C)[C@H](NC(=O)[C@H](Cc1ccccc1)NC(=O)[C@H](CCC(=O)O)NC(=O)[C@H](CCCNC(=N)N)NC(=O)[C@H](C)NC(=O)[C@H](C)NC(=O)[C@H](CCC(N)=O)NC(=O)[C@H](CCC(=O)O)NC(=O)[C@H](CCC(=O)O)NC(=O)[C@H](CC(C)C)NC(=O)[C@H](CC(C)C)NC(=O)[C@@H](NC(=O)[C@H](CO)NC(=O)[C@H](Cc1ccc(O)cc1)NC(=O)[C@H](CC(=O)O)NC(=O)[C@H](CO)NC(=O)[C@@H](NC(=O)[C@H](Cc1ccccc1)NC(=O)[C@@H](NC(=O)CNC(=O)[C@H](CCC(=O)O)NC(=O)C(C)(C)NC(=O)[C@@H](N)Cc1ccc(O)cc1)[C@@H](C)O)[C@@H](C)O)[C@@H](C)CC)C(=O)N[C@@H](CCC(=O)O)C(=O)N[C@@H](Cc1c[nH]c2ccccc12)C(=O)N[C@@H](CC(C)C)C(=O)N[C@@H](CC(C)C)C(=O)N[C@@H](C)C(=O)NCC(=O)NCC(=O)N1CCC[C@H]1C(=O)N[C@@H](CO)C(=O)N[C@@H](CCCCNC(=O)[C@@H](N)CCCCNC(=O)[C@@H](N)CCCCNC(=O)CC[C@H](NC(=O)CCCCCCCCCCCCCCC(=O)O)C(=O)O)C(=O)NCC(=O)N[C@@H](C)C(=O)N1CCC[C@H]1C(=O)N1CCC[C@H]1C(=O)N1CCC[C@H]1C(=O)N[C@@H](CO)C(=O)O [Compound 46] (H-Y[Aib]EGTFTSDYSILLEEQAAREFIEWLLAGGPSK([εLys-εLys-γGlu-C16 diacid])GAPPPS-OH)	0.0018	0.097	0.0015	0.111
CC[C@H](C)[C@H](NC(=O)[C@H](Cc1ccccc1)NC(=O)[C@H](CCC(=O)O)NC(=O)[C@H](CCCNC(=N)N)NC(=O)[C@H](C)NC(=O)[C@H](C)NC(=O)[C@H](CCC(N)=O)NC(=O)[C@H](CCC(=O)O)NC(=O)[C@H](CCC(=O)O)NC(=O)[C@H](CC(C)C)NC(=O)[C@H](Cc1ccc(O)cc1)NC(=O)[C@@H](NC(=O)[C@H](CO)NC(=O)[C@H](Cc1ccc(O)cc1)NC(=O)[C@H](CC(=O)O)NC(=O)[C@H](CO)NC(=O)[C@@H](NC(=O)[C@H](Cc1ccccc1)NC(=O)[C@@H](NC(=O)CNC(=O)[C@H](CCC(=O)O)NC(=O)C(C)(C)NC(=O)[C@@H](N)Cc1ccc(O)cc1)[C@@H](C)O)[C@@H](C)O)[C@@H](C)CC)C(=O)N[C@@H](CC(N)=O)C(=O)N[C@@H](Cc1c[nH]c2ccccc12)C(=O)N[C@@H](CC(C)C)C(=O)N[C@@H](CC(C)C)C(=O)N[C@@H](C)C(=O)NCC(=O)NCC(=O)N1CCC[C@H]1C(=O)N[C@@H](CO)C(=O)N[C@@H](CCCCNC(=O)[C@@H](N)CCCCNC(=O)[C@@H](N)CCCCNC(=O)CC[C@H](NC(=O)CCCCCCCCCCCCCCCCC(=O)O)C(=O)O)C(=O)NCC(=O)N[C@@H](C)C(=O)N1CCC[C@H]1C(=O)N1CCC[C@H]1C(=O)N1CCC[C@H]1C(=O)N[C@@H](CO)C(=O)O [Compound 42] (H-Y[Aib]EGTFTSDYSIYLEEQAAREFINWLLAGGPSK([εLys-εLys-γGlu-C18 diacid])GAPPPS-OH)	0.0059	0.306	0.0023	0.0835
CC[C@H](C)[C@H](NC(=O)[C@H](Cc1ccccc1)NC(=O)[C@H](CCC(=O)O)NC(=O)[C@H](CCCNC(=N)N)NC(=O)[C@H](C)NC(=O)[C@H](C)NC(=O)[C@H](CCCCNC(=O)[C@@H](N)CCCCNC(=O)[C@@H](N)CCCCNC(=O)CC[C@H](NC(=O)CCCCCCCCCCCCCCCCC(=O)O)C(=O)O)NC(=O)[C@H](CCC(=O)O)NC(=O)[C@H](CCC(=O)O)NC(=O)[C@H](CC(C)C)NC(=O)[C@H](Cc1ccc(O)cc1)NC(=O)[C@@H](NC(=O)[C@H](CO)NC(=O)[C@H](Cc1ccc(O)cc1)NC(=O)[C@H](CC(=O)O)NC(=O)[C@H](CO)NC(=O)[C@@H](NC(=O)[C@H](Cc1ccccc1)NC(=O)[C@@H](NC(=O)CNC(=O)[C@H](CCC(=O)O)NC(=O)C(C)(C)NC(=O)[C@@H](N)Cc1ccc(O)cc1)[C@@H](C)O)[C@@H](C)O)[C@@H](C)CC)C(=O)N[C@@H](CC(N)=O)C(=O)N[C@@H](Cc1c[nH]c2ccccc12)C(=O)N[C@@H](CC(C)C)C(=O)N[C@@H](CC(C)C)C(=O)N[C@@H](C)C(=O)NCC(=O)NCC(=O)N1CCC[C@H]1C(=O)N[C@@H](CO)C(=O)N[C@@H](CO)C(=O)NCC(=O)N[C@@H](C)C(=O)N1CCC[C@H]1C(=O)N1CCC[C@H]1C(=O)N1CCC[C@H]1C(=O)N[C@@H](CO)C(=O)O [Compound 38] (H-Y[Aib]EGTFTSDYSIYLEEK([εLys-εLys-γGlu-C18 diacid])AAREFINWLLAGGPSSGAPPPS-OH)	0.0124	0.815	0.0031	0.259
CC[C@H](C)[C@H](NC(=O)[C@H](Cc1ccccc1)NC(=O)[C@H](CCCCNC(=O)[C@@H](N)CCCCNC(=O)[C@@H](N)CCCCNC(=O)CC[C@H](NC(=O)CCCCCCCCCCCCCCCCC(=O)O)C(=O)O)NC(=O)[C@H](CCCNC(=N)N)NC(=O)[C@H](C)NC(=O)[C@H](C)NC(=O)[C@H](CCC(N)=O)NC(=O)[C@H](CCC(=O)O)NC(=O)[C@H](CCC(=O)O)NC(=O)[C@H](CC(C)C)NC(=O)[C@H](Cc1ccc(O)cc1)NC(=O)[C@@H](NC(=O)[C@H](CO)NC(=O)[C@H](Cc1ccc(O)cc1)NC(=O)[C@H](CC(=O)O)NC(=O)[C@H](CO)NC(=O)[C@@H](NC(=O)[C@H](Cc1ccccc1)NC(=O)[C@@H](NC(=O)CNC(=O)[C@H](CCC(=O)O)NC(=O)C(C)(C)NC(=O)[C@@H](N)Cc1ccc(O)cc1)[C@@H](C)O)[C@@H](C)O)[C@@H](C)CC)C(=O)N[C@@H](CC(N)=O)C(=O)N[C@@H](Cc1c[nH]c2ccccc12)C(=O)N[C@@H](CC(C)C)C(=O)N[C@@H](CC(C)C)C(=O)N[C@@H](C)C(=O)NCC(=O)NCC(=O)N1CCC[C@H]1C(=O)N[C@@H](CO)C(=O)N[C@@H](CO)C(=O)NCC(=O)N[C@@H](C)C(=O)N1CCC[C@H]1C(=O)N1CCC[C@H]1C(=O)N1CCC[C@H]1C(=O)N[C@@H](CO)C(=O)O [Compound 37] (H-Y[Aib]EGTFTSDYSIYLEEQAARK([εLys-εLys-γGlu-C18 diacid])FINWLLAGGPSSGAPPPS-OH)	0.0112	0.298	0.0027	0.0946
